{"source": "patent US10344037B2", "about": "“Use of the FL-one hundred eighteen core chemical structure platform to generate FL-one hundred eighteen derivatives for treatment of human disease” (priority 2014, dated 2019)", "key": {"[1]": {"system": "p53", "assay": "Western blot for p53 expression in colon cancer cells with wild type p53", "assay_type": "cell-based, human", "procedure": "Actin is an internal control for total protein loading.\nAfter the lysates are cleared by centrifugation at 15,000 g for 20 minutes at 4° C., the total protein is determined using Bio-Rad protein assay solution. Up to 50 μg of total protein is denatured in 2×SDS sample loading buffer for 5 minutes at 95° C., separated on 10-15% SDS-PAGE gels, and electrotransferred to the Pure Nitrocellulose Membrane (Bio-Rad, Hercules, Calif.) using semi-dry electrophoretic transfer. After the nonspecific binding sites on the membranes are blocked with 5% skim milk in TBS-T (20 mM Tris-HCl pH 7.5, 0.137 M NaCl, and 0.01% Tween 20) for 3 hours at room temperature with constant shaking, the membranes are incubated in TBS-T containing the relevant primary antibody (1: 500-1000) and 5% BSA overnight at 4° C. After washing with TB S-T three times, the membrane is incubated in 5% skim milk in TBS-T buffer containing the appropriate secondary anti-IgG antibody (1:5000) at room temperature for 1 h with constant shaking. The protein of interest is detected using Western Lightning®-ECL (Perkin Elmer, Waltham, Mass.) and visualized by exposure for various times (5-60 seconds). […]"}, "[2]": {"system": "HCT116-NS6 cells", "assay": "cells", "assay_type": "cell-based, human", "procedure": "(§2) Cancer cell viability and growth are determined by MTT assay. […] MTT is used as a colorimetric substrate for measuring cell viability and growth. When cell growth is inhibited, there is an alteration of cellular redox activity, and thus rendering cells unable to reduce the MTT dye. Cells are seeded in 96 well plates overnight and then treated with or without a compound/drug in the presence or absence of an protein molecule inhibitor (e.g. ABCG2 inhibitor ko143) for 48-72 hours, MTT is added to a final concentration 0.5 mg/ml. Cells are continuously incubated in a 5% CO2 incubator at 37° C. for 4 h with MTT and then lysed with a cell lysis buffer (20% SDS, 50% N,N-dimethylformamide, pH 4.7), 100 μl per well, for 4 h in the incubator. Subsequently, cell absorbance in each well is measured at 570 nm with an Ultra Microplate Reader (Bio-Tek Instruments). Results are reported as the mean±SD from 3-5 independent assays at each point. […] After 72 hours, media is removed and cells are harvested using 0.5 ml of 0.25% Trypsin-EDTA. Cells are counted and viability is analyzed on a Vi-CELL XR Cell Viability Analyzer (Beckman Coulter)."}, "[3]": {"system": "FaDu and SW620 tumors", "source_text": "Three types of human cancer xenografts are used in the studies: 1) from human head-&-neck cancer cell line (FaDu)-established xenografts; 2) from human colon cancer cell line (SW620)-established xenografts; and 3) from human acute lymphocytic leukemia cell line (EU-4)-established xenografts. All in vivo experiments use either nude or severe combined immunodeficiency (SCID) mice. Human tumor cell line-derived xenografts are initially established by subcutaneously injecting 1×10^6 cultured cancer cells. The derived tumors are then passed several generations in mice by transplanting 40-50 mg non-necrotic tumor mass via a trocar after the xenograft tumor reached ˜1000 mm^3. Treatment is initiated 7 days after tumor transplantation when the tumor reached 200-250 mm^3, at which time the treatment was designated as Day 0. Six to 12-week-old female SCID mice used in the studies. All animal experiments are performed in accordance with IACUC-approved animal protocols. Mice were housed 5 mice per cage with water and food ad libitum."}, "[4]": {"system": "IAP and Bcl-2 family genes", "assay": "Affymetrix Human Gene 1.0 ST Array of FL118-treated PC3 cells", "settings": "DNA microarray"}, "[5]": {"system": "FaDu head-&-neck and SW620 CRC tumor xenografts", "assay": "Xenografts with acquired irinotecan or topotecan resistance", "assay_type": "in vivo, SCID mice", "settings": "FL118 1.5 or 1 mg/kg IP q2d×5", "method": "Individual tumor curves derived from individual mice are shown. A. Mice with FaDu head-&-neck tumor xenografts were first treated with irinotecan at its maximum tolerated dose (MTD, 100 mg/kg, IP) weekly for 4-5 times (black arrow). […] B. Mice with FaDu tumor xenografts were first treated with topotecan at its MTD (4 mg/kg, IP) via daily×5 schedules for 4 cycles (each black arrow is one cycle). […] C. Mice with SW620 CRC xenografts were first treated with irinotecan at its MTD (IP, weekly×4, black arrow). […] D. Mice with SW620 xenograft tumors were first treated with topotecan at its MTD."}, "[6]": {"system": "HCT-8 cells", "assay": "Clonogenic assay, HCT-8 cells with shC or shp53", "assay_type": "cell-based, human", "settings": "0.3 or 10 nM for 3 days, 14-days culture; shC versus shp53", "procedure": "HCT-8 cells are infected with either control lentivirus (shC) or lentivirus expressing shRNA against human p53 (shp53). […] Cell colonies are stained with crystal violet solution after 14-days culture. […] Colonies larger than 50 cells are counted and normalized against non-treatment control group.\nCancer cells are infected with or without lentivirus particles expressing control shRNA or shRNA for p53 knockdown (pLKO.1) followed by selection with puromycin for one week at 5 μg/ml. […] Then the cells are cultured in an incubator at 37° C., 5% CO2 for another two weeks before fixation and staining with crystal violet solution. Colonies are defined as more than 50 cells and/or images are then digitally taken."}, "[7]": {"system": "HCT116-C8 cells", "assay": "cells", "assay_type": "cell-based, human", "procedure": "as §2"}, "[8]": {"system": "HCT-8 colon cancer cells", "assay": "Cell growth inhibition, 72 hours", "assay_type": "cell-based, human", "settings": "HCT-8 cells", "method": "(§1) Cell growth is then measured and the data are plotted as percentage of growth inhibition (no drug treatment was set at 0%). […] C. […] Representative cancer cell images were taken with a digital camera under phase-contrast microscope."}, "[9]": {"system": "HCT-8 cells", "assay": "Colony formation after 2 h or 6 h drug treatment", "assay_type": "cell-based, human", "settings": "2 h or 6 h treatment, 2 weeks growth", "method": "Subconfluent SW620, HCT-8, and HCT-116 cells were lysed and analyzed for the expression of MDR1 and ABCG2 using western blots (WB). Actin is the internal control. […] Cell growth/viability was then analyzed by MTT assays. Each time point in the individual curve is the mean±SD from 3 to 5 independent assays. […] Drugs were then washed out and cells were allowed to grow in new medium without drugs for 2 weeks. Cell colonies were stained with crystal violet solution; images were digitally taken. Triplicate results are shown.\nas §1"}, "[10]": {"system": "colorectal cancer PDX (11124, 14528)", "assay": "Colorectal cancer patient-derived xenografts (PDX)", "set-up": "species or system SCID mice", "settings": "mouse, in vivo", "from_the_text": "Individual PDX were subcutaneously inoculated into SCID mice. […] Individual PDX tumor curves derived from individual mice are shown. […] Two examples of colorectal cancer PDX (11124, 14528) are shown."}, "[11]": {"assay": "Cardiac measurements by ultrasound", "assay_type": "in vivo, SCID mice", "settings": "IV 0.75 mg/kg (½MTD), q2d×4", "method": "Cardiac imaging is performed using a 55 MHz ultrasound transducer system. Calculations are made based on the Simpson's method. Three short axis images and one long axis image of the left ventricle are acquired and used to determine cardiac output, ejection fraction, and stroke volume. […] Measurements are made with a 55 MHz ultrasound probe. Step (a): cardiac output is a measurement of the total volume of blood pumped by the left ventricle per minute. Step (b) ejection fraction measures the percentage of blood that leaves the left ventricle every time it contracts. Step (c) stroke volume measures the volume of blood pumped from the left ventricle with each contraction.\nOn the other hand, we have analyzed a comprehensive panel of chemical parameters to determine the potential chemical toxicity including renal and liver toxicity using blood samples from vehicle-treated SCID mice and FL118-treated mice. The analyzed parameters include glucose (GLU), blood urea nitrogen (BUN), creatinine (CREA), inorganic phosphate (PHOS), calcium (CA), total protein (TP), albumin (ALB), alanine aminotransferase (ALT), alkaline phosphatase (ALKP), Gamma-glutamyl transferase (GGT), total bilirubin (TBIL), cholesterol (CHOL), and amylase (AMYL), lipase (LIPA)."}, "[12]": {"system": "human umbilical vein endothelial cells (HUVECS)", "assay": "Cell growth and viability, MTT", "assay_type": "cell-based", "settings": "72 hours"}, "[13]": {"system": "cancer cells", "assay": "Cell growth and viability, MTT", "assay_type": "cell-based, human", "settings": "72 hours", "method": "Actin is an internal control for equal protein loading. […] Subconfluent cancer cells as shown are treated with a series of concentrations of crolibulin as shown (0-100 μM) for 72 hours. Cell growth and viability are determined via MTT assay. Each curve is the mean±SD from 4 independent assays.\nCrolibulin is an anticancer drug that targets endothelial cells of the cancer vasculature system. Therefore, crolibulin is considered as a vascular disrupt agent (VDA)."}, "[14]": {"system": "ABCG2 in HCT116-A2 cells", "assay": "Growth inhibition after ABCG2 shRNA silencing", "assay_type": "cell-based, human", "settings": "72 hours", "method": "Actin is internal control. B and C. […] Cells at sub-confluence are infected with lentiviral particles containing nonsense shRNA (ns), or AGCG2-specific shRNA (sh1, sh2) to silence ABCG2 expression in the cells. […] Viability for each dose was determined using a ViCELL XR cell viability analyzer and normalized to that of DMSO control. Error bars=SEM, n=3 independent experiments. Data are plotted graphically and EC50 values are calculated using GraphPad Prism 6.0."}, "[15]": {"system": "HCT116 colon cancer cells", "assay": "cells", "assay_type": "cell-based, human", "procedure": "as §2"}, "[16]": {"target": "Hdm2/HdmX complex (Homo sapiens, UniProt O15151+Q00987)", "sequence (Q00987 whole entry)": "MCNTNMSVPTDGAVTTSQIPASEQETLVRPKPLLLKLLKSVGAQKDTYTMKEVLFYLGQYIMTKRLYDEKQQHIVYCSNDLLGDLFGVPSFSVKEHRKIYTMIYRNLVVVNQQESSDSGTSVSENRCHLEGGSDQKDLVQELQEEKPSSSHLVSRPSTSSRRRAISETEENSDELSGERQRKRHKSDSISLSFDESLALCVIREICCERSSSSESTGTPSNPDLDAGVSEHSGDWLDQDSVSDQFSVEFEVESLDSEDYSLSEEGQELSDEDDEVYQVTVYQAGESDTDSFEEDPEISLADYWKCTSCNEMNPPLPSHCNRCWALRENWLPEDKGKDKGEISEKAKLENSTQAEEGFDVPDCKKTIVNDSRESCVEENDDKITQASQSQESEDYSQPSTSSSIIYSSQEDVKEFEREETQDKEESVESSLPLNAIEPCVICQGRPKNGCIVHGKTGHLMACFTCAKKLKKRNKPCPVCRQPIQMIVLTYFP", "sequence (O15151 whole entry)": "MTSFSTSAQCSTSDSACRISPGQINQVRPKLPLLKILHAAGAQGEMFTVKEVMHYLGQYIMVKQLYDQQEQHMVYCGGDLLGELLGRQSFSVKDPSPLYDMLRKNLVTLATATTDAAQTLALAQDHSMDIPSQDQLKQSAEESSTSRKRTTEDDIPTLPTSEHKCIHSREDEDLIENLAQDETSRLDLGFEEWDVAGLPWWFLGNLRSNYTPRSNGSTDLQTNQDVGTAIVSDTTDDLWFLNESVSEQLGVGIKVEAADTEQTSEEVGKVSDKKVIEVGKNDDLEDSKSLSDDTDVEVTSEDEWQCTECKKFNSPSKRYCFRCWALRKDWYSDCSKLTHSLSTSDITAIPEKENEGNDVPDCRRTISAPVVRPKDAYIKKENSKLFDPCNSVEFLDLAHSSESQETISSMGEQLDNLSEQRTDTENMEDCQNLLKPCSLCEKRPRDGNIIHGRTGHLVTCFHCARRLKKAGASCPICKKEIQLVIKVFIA", "assay": "In vitro ubiquitination assay with recombinant proteins", "procedure": "The ubiquitinated p53 (Ub-p53) bands are detected as shown.\nThe reaction products are resolved by SDS-PAGE followed by immunoblotting with p53 antibody DO-1. For HdmX ubiquitination in vitro, reactions are performed in a 50-μl volume. After completion of the reactions, 10 μl is used for direct immunoblotting to reveal HdmX ubiquitination (a smearing pattern) with FLAG antibody. 40 μl reactions are used for denaturing with 1% SDS followed by dilution with 800 μl of 20 mM Tris, pH7.5, 0.5% NP40, and 120 mM NaCl. The processed reaction products are used for immunoprecipitation with ubiquitin antibody followed by immunoblotting for FLAG-HdmX using anti-FLAG antibodies."}, "[17]": {"system": "HCT116-A2 cells", "assay": "cells", "assay_type": "cell-based, human", "procedure": "as §2"}, "[18]": {"settings": "IC50 of topotecan divided by IC50 of the drug"}}, "data": [{"smiles": "CC[C@@]1(O)C(=O)OCc2c1cc1n(c2=O)Cc2cc3cc4c(cc3nc2-1)OCO4", "note": "[FL118]", "values": [{"measurement": "p53 protein expression", "setting": "[1]", "result": "strong and rapid induction of p53 expression"}, {"measurement": "IC50", "setting": "[2]", "result": 0.138, "unit": "nM"}, {"measurement": "RP", "setting": "[2]; [18]", "result": 40.87}, {"measurement": "mouse deaths", "setting": "[3]; large tumors, stored FL118 solution, attributed to possible Tumor Lysis Syndrome", "result": "death of two mice on Day 37"}, {"measurement": "antitumor activity of stored solution", "setting": "[3]; ready-to-use solution stored at 4° C. for 6 months, 1.5 mg/kg weekly for 4 weeks", "result": "as effective as the newly formulated solution"}, {"measurement": "expression of Bcl-2 family antiapoptotic genes", "setting": "[4]", "result": "slightly decreases Mcl-1 and Bcl-XL, and shows no effect on Bcl-2, Bcl2A1, Bcl-w, Bcl-B, Bcl2L12, Bcl2L13, Bcl-G and Bcl2L15"}, {"measurement": "expression of IAP family genes", "setting": "[4]", "result": "decreases (2 fold cutoff) NAIP, cIAP2, XIAP and Bruce, and shows no effects on cIAP1, Livin and hILP2"}, {"measurement": "expression of proapoptotic proteins", "setting": "[4]", "result": "increases proapoptotic proteins Bax, Bad, Bim, Hrk, and Bmf without affecting the expression of Bid, Bik, Bak and Bok"}, {"measurement": "effect on tumors with acquired irinotecan and topotecan resistance", "setting": "[5]", "result": "effectively regressed"}, {"measurement": "clonogenic growth", "setting": "[6]", "result": "inhibits clonogenic growth independent of p53 status"}, {"measurement": "IC50", "setting": "[7]", "result": 0.0937, "unit": "nM"}, {"measurement": "RP", "setting": "[7]; [18]", "result": 4041}, {"measurement": "more sensitive to colon cancer cells than topotecan", "setting": "[8]", "result": "at least 25 time"}, {"measurement": "more effective to inhibit colony formation than topotecan", "setting": "[9]", "result": "> 100", "unit": "time"}, {"measurement": "antitumor activity on the same PDX on different mice", "setting": "[10]", "result": "very similar antitumor activity to the same tumor on different SCID mice"}, {"measurement": "cardiac output, ejection fraction and stroke volume", "setting": "[11]", "result": "no difference between vehicle control and FL118-treated SCID mice"}, {"measurement": "sensitivity of HUVEC cells", "setting": "[12]", "result": "insensitive to FL118 treatment"}, {"measurement": "sensitivity of cancer cells", "setting": "[13]", "result": "sensitive to FL118 treatment"}, {"measurement": "effect of silencing of ABCG2 on cell growth inhibition", "setting": "[14]", "result": "shows no effect to FL118"}, {"measurement": "IC50", "setting": "[15]", "result": 0.0477, "unit": "nM"}, {"measurement": "RP", "setting": "[15]; [18]", "result": 15.67}, {"measurement": "Hdm2-mediated HdmX ubiquitination in vitro", "setting": "[16]", "result": "stimulates Hdm2-mediated HdmX ubiquitination in a concentration-dependent manner"}, {"measurement": "Mdm2-MdmX mediated p53 polyubiquitination in vitro", "setting": "[16]", "result": "moderately inhibits"}, {"measurement": "IC50", "setting": "[17]", "result": 0.163, "unit": "nM"}, {"measurement": "RP", "setting": "[17]; [18]", "result": 666.5}]}]}
